Source: the supplement of paper PMC10331698
± gives the standard deviation of the averaged measurements.

What was measured:
Assay in all cases: level (log10 ratio to DMSO vehicle control); higher = higher biomarker level / cell amount than vehicle control
Perfluoropentanoic acid = compound: O=C(O)C(F)(F)C(F)(F)C(F)(F)C(F)(F)F [Perfluoropentanoic acid]; conditions: in DMSO
Description: (§1)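 BioMAP Diversity Plus panel of 12 human primary cell co-culture systems (3C, 4H, LPS, SAg, BT, BF4T, BE3C, CASM3C, HDF3CGF, KF3CT, MyoF, Mphg). Compounds were added 1 h before stimulation and left for 24 h (MyoF 48 h; BT 72 h for soluble read-outs or 6 d for IgG). Biomarkers were read by ELISA, cytotoxicity by SRB, PBMC viability and proliferation by Alamar Blue. Each well value was divided by the mean of 8 DMSO control wells on the same plate and log10 transformed; duplicate blinded samples were tested at 4 concentrations.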

[1] = compound: OCCCC(F)(F)C(F)(F)C(F)(F)C(F)(F)C(F)(F)C(F)(F)C(F)(F)F [7:3 Fluorotelomer alcohol]; conditions: 6700 nM; in DMSO
Description: as §1

[2] = compound: FC(F)(F)C(F)(F)C(F)(F)C(F)(F)C(F)(F)C(F)(F)C(F)(F)C(F)(F)CCS [2-(Perfluorooctyl)ethanthiol]; conditions: in DMSO
Description: as §1

Perfluorodecanoic acid = compound: O=C(O)C(F)(F)C(F)(F)C(F)(F)C(F)(F)C(F)(F)C(F)(F)C(F)(F)C(F)(F)C(F)(F)F [Perfluorodecanoic acid]; conditions: in DMSO
Description: as §1

Perfluoro-1-iodohexane = compound: FC(F)(F)C(F)(F)C(F)(F)C(F)(F)C(F)(F)C(F)(F)I [Perfluoro-1-iodohexane]; conditions: in DMSO
Description: as §1

[3] = compound: FC(F)(F)C(F)(F)C(F)(F)C(F)(F)C(F)(F)CCI [1-Iodo-1H,1H,2H,2H-perfluoroheptane]; conditions: in DMSO
Description: as §1

[4] = compound: O=S(=O)(O)C(F)(F)C(F)(F)C(F)(F)C(F)(F)C(F)(F)C(F)(F)F [Perfluorohexanesulfonic acid]; conditions: in DMSO
Description: as §1

[5] = compound: O=C(O)C(F)(F)C(F)(F)C(F)F [4H-Perfluorobutanoic acid]; conditions: in DMSO
Description: as §1

Test System | level (log10) (Perfluoropentanoic acid; 6700 nM) | level (log10) (Perfluoropentanoic acid; 20000 nM) | level (log10) (Perfluoropentanoic acid; 60000 nM) | level (log10) [1] | level (log10) ([2]; 6700 nM) | level (log10) ([2]; 20000 nM) | level (log10) (Perfluorodecanoic acid; 6700 nM) | level (log10) (Perfluorodecanoic acid; 20000 nM) | level (log10) (Perfluoro-1-iodohexane; 6700 nM) | level (log10) (Perfluoro-1-iodohexane; 20000 nM) | level (log10) (Perfluoro-1-iodohexane; 60000 nM) | level (log10) ([3]; 6700 nM) | level (log10) ([3]; 20000 nM) | level (log10) ([3]; 60000 nM) | level (log10) ([4]; 6700 nM) | level (log10) ([4]; 20000 nM) | level (log10) ([4]; 60000 nM) | level (log10) ([5]; 6700 nM) | level (log10) ([5]; 20000 nM) | level (log10) ([5]; 60000 nM)
HDF3CGF:SRB | 0.012 ± 0.011 | 0.01 ± 0.018 | 0.0125 ± 0.03 | -0.014 ± 0.027 | 0.0135 ± 0.023 | 0.011 ± 0.0085 | 0.0725 ± 0.044 | 0.131 ± 0.016 | 0.021 ± 0.035 | 0.0085 ± 0.018 | -0.0085 ± 0.067 | 0.0335 ± 0.036 | 0.0065 ± 0.023 | -0.052 ± 0.033 | 0.017 ± 0.011 | 0.0145 ± 0.022 | -0.009 ± 0.0085 | -0.0125 ± 0.06 | -0.0095 ± 0.0035 | 0.0155 ± 0.022
HDF3CGF:TIMP-1 | -0.0195 ± 0.0021 | -0.032 ± 0.014 | 0.0115 ± 0.011 | -0.012 | -0.017 ± 0.013 | -0.035 ± 0.0042 | 0.016 ± 0.037 | -0.0995 ± 0.03 | -0.014 ± 0.021 | -0.017 ± 0.025 | -0.0385 ± 0.016 | -0.001 ± 0.0042 | 0.0055 ± 0.005 | -0.024 ± 0.0085 | 0.0145 ± 0.016 | 0.049 ± 0.021 | 0.094 ± 0.038 | -0.015 ± 0.031 | -0.007 ± 0.0014 | 0.0115 ± 0.021
HDF3CGF:TIMP-2 | 0.009 ± 0.024 | -0.0155 ± 0.018 | -0.0025 ± 0.011 | 0.0005 ± 0.013 | -0.0305 ± 0.073 | -0.0265 ± 0.069 | -0.006 ± 0.028 | -0.349 ± 0.17 | 0.017 ± 0.038 | 0.0295 ± 0.018 | 0.031 ± 0.045 | 0.0155 ± 0.023 | 0.004 ± 0.033 | -0.019 ± 0.035 | -0.0055 ± 0.015 | 0.0095 ± 0.0035 | -0.02 ± 0.0099 | -0.0295 ± 0.066 | -0.01 ± 0.044 | -0.003 ± 0.059
KF3CT:CCL2/MCP-1 | 0.002 ± 0.02 | -0.025 ± 0.025 | 0.0215 ± 0.05 | -0.0105 ± 0.005 | -0.0125 ± 0.011 | -0.0285 ± 0.0092 | -0.127 ± 0.023 | -0.321 ± 0.032 | 0.0225 ± 0.032 | -0.015 ± 0.0014 | -0.0185 ± 0.047 | 0.0005 ± 0.015 | -0.034 ± 0.028 | -0.0465 ± 0.064 | 0.0075 ± 0.032 | -0.001 ± 0.013 | 0.0205 ± 0.023 | -0.0705 ± 0.0092 | -0.032 ± 0.0099 | -0.0115 ± 0.023
KF3CT:CD54/ICAM-1 | 0.004 ± 0.0057 | 0.001 ± 0.013 | 0.016 ± 0.028 | -0.022 ± 0.0071 | -0.001 ± 0.034 | -0.002 ± 0.0085 | 0.0095 ± 0.013 | -0.003 ± 0.0028 | 0.001 ± 0.0085 | 0.008 ± 0.021 | 0 ± 0.011 | 0.0015 ± 0.019 | -0.0045 ± 0.00071 | -0.0165 ± 0.0021 | -0.0165 ± 0.005 | -0.0165 ± 0.0078 | -0.013 ± 0.014 | 0.005 ± 0.0028 | -0.0115 ± 0.0035 | -0.006 ± 0.011
KF3CT:CXCL8/IL-8 | -0.0025 ± 0.019 | -0.0035 ± 0.005 | 0.016 ± 0.0071 | 0.0035 ± 0.043 | -0.026 ± 0.034 | -0.028 ± 0.037 | -0.0225 ± 0.011 | -0.0035 ± 0.018 | -0.0125 ± 0.016 | 0.003 ± 0.0014 | 0 ± 0.011 | 0.007 ± 0.035 | 0.028 ± 0.02 | 0.06 ± 0.011 | 0.015 ± 0.02 | 0.03 ± 0.0057 | 0.038 ± 0.0057 | 0.0025 ± 0.0078 | 0.01 ± 0.0085 | 0.017 ± 0.0042
KF3CT:CXCL9/MIG | -0.002 ± 0.0057 | -0.0055 ± 0.0021 | 0.0085 ± 0.013 | 0.0015 ± 0.005 | 0.016 ± 0.018 | 0.014 ± 0.0042 | 0.0065 ± 0.0078 | -0.0185 ± 0.0035 | -0.002 | -0.0125 ± 0.00071 | 0.0025 ± 0.012 | 0.003 ± 0.0014 | 0.003 | 0.006 ± 0.0014 | 0.001 ± 0.021 | 0.002 ± 0.0071 | 0.013 ± 0.013 | -0.004 ± 0.016 | -0.011 ± 0.011 | -0.007 ± 0.0071
KF3CT:CXCL10/IP-10 | 0.002 ± 0.0042 | -0.0085 ± 0.0035 | 0.0025 ± 0.016 | 0.01 ± 0.0042 | -0.025 ± 0.0042 | -0.01 ± 0.0057 | -0.044 ± 0.017 | -0.134 ± 0.028 | 0.005 ± 0.0014 | 0.001 ± 0.0028 | 0.0065 ± 0.0092 | 0.0035 ± 0.00071 | 0.001 ± 0.013 | -0.0185 ± 0.00071 | -0.006 | -0.016 ± 0.0028 | -0.022 ± 0.016 | -0.007 ± 0.016 | -0.0035 ± 0.016 | 0.01 ± 0.0042
KF3CT:IL-1alpha | -0.004 ± 0.017 | 0.004 ± 0.0028 | -0.0115 ± 0.021 | -0.0135 ± 0.011 | -0.0065 ± 0.026 | -0.009 ± 0.0042 | -0.0535 ± 0.0035 | -0.068 ± 0.0042 | 0.008 ± 0.017 | 0.005 ± 0.017 | -0.014 ± 0.017 | 0.01 ± 0.016 | 0.009 ± 0.0057 | -0.0295 ± 0.016 | 0.0065 ± 0.054 | -0.014 ± 0.016 | -0.015 ± 0.017 | 0.001 ± 0.05 | -0.0055 ± 0.005 | 0.0075 ± 0.06
KF3CT:MMP-9 | -0.0225 ± 0.025 | -0.0205 ± 0.018 | 0.012 ± 0.038 | -0.019 ± 0.018 | -0.029 ± 0.035 | -0.0275 ± 0.037 | -0.103 ± 0.037 | -0.308 ± 0.0028 | -0.0225 ± 0.0064 | -0.0225 ± 0.0092 | -0.044 ± 0.0099 | -0.017 ± 0.011 | -0.0265 ± 0.025 | -0.029 ± 0.021 | 0.0095 ± 0.0064 | 0.028 ± 0.0014 | 0.027 ± 0.0057 | -0.024 ± 0.055 | -0.0395 ± 0.012 | -0.0775 ± 0.00071
KF3CT:PAI-I | 0.0005 ± 0.021 | -0.003 | 0.004 ± 0.0057 | -0.017 ± 0.025 | -0.04 | -0.0425 ± 0.023 | -0.0365 ± 0.023 | -0.144 ± 0.042 | 0.001 ± 0.0014 | -0.0005 ± 0.005 | 0.0055 ± 0.005 | -0.007 ± 0.02 | -0.014 ± 0.0071 | -0.0245 ± 0.028 | -0.0105 ± 0.012 | -0.0325 ± 0.00071 | -0.0435 ± 0.0021 | 0.0015 ± 0.022 | 0.046 ± 0.02 | -0.0075 ± 0.073
KF3CT:SRB | -0.007 ± 0.0071 | -0.004 ± 0.0014 | 0.0055 ± 0.011 | -0.002 ± 0.0071 | -0.0015 ± 0.0021 | 0.002 ± 0.0042 | -0.0325 ± 0.005 | -0.036 ± 0.0085 | -0.0075 ± 0.00071 | -0.0065 ± 0.00071 | 0 ± 0.011 | 0.002 ± 0.0071 | -0.0045 ± 0.00071 | -0.0065 ± 0.0078 | -0.0015 ± 0.0021 | -0.0095 ± 0.005 | 0.0005 ± 0.023 | -0.005 ± 0.0071 | -0.0065 ± 0.0064 | -0.008 ± 0.0014
KF3CT:TIMP-2 | -0.013 ± 0.037 | -0.0065 ± 0.0035 | 0.017 ± 0.045 | -0.0005 ± 0.028 | -0.025 ± 0.02 | -0.021 ± 0.02 | 0.003 ± 0.03 | -0.051 ± 0.034 | 0.0015 ± 0.013 | 0.0135 ± 0.019 | 0.0035 ± 0.011 | -0.012 ± 0.035 | -0.03 ± 0.028 | -0.0245 ± 0.03 | 0.0005 ± 0.0064 | 0.012 ± 0.0042 | 0.019 ± 0.013 | 0.002 ± 0.031 | -0.011 ± 0.016 | 0.004 ± 0.0099
KF3CT:uPA | 0.0015 ± 0.023 | 0 ± 0.0085 | 0.021 ± 0.0071 | -0.0075 ± 0.0064 | 0.006 ± 0.013 | 0.001 ± 0.016 | -0.0095 ± 0.013 | 0 ± 0.023 | 0.013 ± 0.0042 | 0.006 ± 0.023 | 0.007 ± 0.017 | -0.001 ± 0.034 | 0.0145 ± 0.022 | 0.0125 ± 0.00071 | -0.0135 ± 0.015 | -0.0105 ± 0.015 | -0.002 ± 0.0014 | 0.0125 ± 0.028 | 0.0275 ± 0.0064 | 0.007 ± 0.035
